# Test system: cerebral cortex slice
# Assay: Glutamate liberation inhibitory activity in cerebral cortex slice
# Type: cell-based, SD rat
# Conditions: 10⁻⁴ M test compound; rat cerebral cortex slice, 30 min pre-incubation, then 50 mM KCl for 60 min; glutamate determined by HPLC, relative to solvent control
# Experimental: Glutamate liberation inhibitory activity in cerebral cortex slice
# A male SD rat was decapitated, and cerebral cortices on both sides were then extirpated to prepare a slice having a thickness of 750 µm (weight: 10 to 20 mg) with a McIlwain tissue chopper. The slice was incubated in a Krebs-Henseleit liquid containing a test compound in the form of a solution thereof for 30 minutes. Then the slice was incubated in one ml of a Krebs-Henseleit liquid containing 50 mM of KCl and the test compound solution for 60 mins. For control, a solvent was added to a Krebs-Henseleit liquid containing only 50 mM of KCl.
# The glutamate liberated in the solution was determined by HPLC, and the glutamate liberation inhibitory activity (%) in 10⁻⁴ M of each test compound solution was calculated by the following equation: (1 -(glutamate in each test compound solution)/(amount of glutamate in control group)) x 100 [formula]
compound,measurement,value
O=C(CN1CCC(Oc2ccc(F)cc2)CC1)c1ccc2ccccc2c1 [compd. of Ex. 3],glutamate liberation inhibitory activity (%) 1 x 10⁻⁴ M,49%

# Source: patent EP0318029B1, “Cyclic amine and pharmacological composition” (Eisai Co., Ltd., priority 1987, dated 1989)
